Results taken from PubChem BioAssay (NCI).
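96-well plates; 48 h exposure; 5 concentrations. Endpoints by linear interpolation between flanking doses. Not reached: highest tested concentration assigned. Here, GI50 denotes the concentration required for 50% inhibition of growth. TGI denotes the concentration required for complete inhibition of growth.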

Assays:
Experiment in all cases: DTP human tumour cell line panel, 48 h
SF-268 CNS = test system: SF-268 CNS
OVCAR-3 ovarian = test system: OVCAR-3 ovarian
SK-MEL-28 melanoma = test system: SK-MEL-28 melanoma
SK-MEL-5 melanoma = test system: SK-MEL-5 melanoma
CCRF-CEM leukemia = test system: CCRF-CEM leukemia
NCI-H23 lung = test system: NCI-H23 lung
MOLT-4 leukemia = test system: MOLT-4 leukemia
HCT-116 colon = test system: HCT-116 colon
IGROV1 ovarian = test system: IGROV1 ovarian
MDA-MB-231 breast = test system: MDA-MB-231 breast
PC-3 prostate = test system: PC-3 prostate
SF-295 CNS = test system: SF-295 CNS
LOX IMVI melanoma = test system: LOX IMVI melanoma
HS 578T breast = test system: HS 578T breast
SK-MEL-2 melanoma = test system: SK-MEL-2 melanoma
NCI/ADR-RES ovarian = test system: NCI/ADR-RES ovarian
HOP-92 NSCLC = test system: HOP-92 NSCLC
MCF7 breast = test system: MCF7 breast
BT-549 breast = test system: BT-549 breast
MALME-3M melanoma = test system: MALME-3M melanoma
COLO 205 colon = test system: COLO 205 colon
OVCAR-8 ovarian = test system: OVCAR-8 ovarian
HCC-2998 colon = test system: HCC-2998 colon
U251 CNS = test system: U251 CNS
UACC-62 melanoma = test system: UACC-62 melanoma
OVCAR-5 ovarian = test system: OVCAR-5 ovarian
DU-145 prostate = test system: DU-145 prostate
OVCAR-4 ovarian = test system: OVCAR-4 ovarian
EKVX NSCLC = test system: EKVX NSCLC
RPMI-8226 leukemia = test system: RPMI-8226 leukemia
HOP-62 NSCLC = test system: HOP-62 NSCLC
NCI-H522 lung = test system: NCI-H522 lung
UACC-257 melanoma = test system: UACC-257 melanoma
NCI-H460 lung = test system: NCI-H460 lung
HT29 colon = test system: HT29 colon
ACHN renal = test system: ACHN renal
SN12C renal = test system: SN12C renal
SR leukemia = test system: SR leukemia
SK-OV-3 ovarian = test system: SK-OV-3 ovarian
RXF 393 renal = test system: RXF 393 renal
HCT-15 colon = test system: HCT-15 colon
NCI-H226 lung = test system: NCI-H226 lung
HL-60(TB) leukemia = test system: HL-60(TB) leukemia
CAKI-1 renal = test system: CAKI-1 renal
SNB-19 CNS = test system: SNB-19 CNS
T-47D breast = test system: T-47D breast
KM12 colon = test system: KM12 colon
SNB-75 CNS = test system: SNB-75 CNS
SF-539 CNS = test system: SF-539 CNS
K-562 leukemia = test system: K-562 leukemia
786-0 renal = test system: 786-0 renal
A549 NSCLC = test system: A549 NSCLC
TK-10 renal = test system: TK-10 renal
MDA-MB-435 = test system: MDA-MB-435
M14 melanoma = test system: M14 melanoma
UO-31 renal = test system: UO-31 renal
SW-620 colon = test system: SW-620 colon

COc1ccc(CNc2nc3cc(N)cc(N)c3nc2-c2ccccc2)cc1OC
GI50 (SF-268 CNS): 16.6 µM
TGI (SF-268 CNS): 65.9 µM
GI50 (OVCAR-3 ovarian): 1.31 µM
TGI (OVCAR-3 ovarian): 3.33 µM
GI50 (SK-MEL-28 melanoma): 15 µM
TGI (SK-MEL-28 melanoma): 33.8 µM
GI50 (SK-MEL-5 melanoma): 9.27 µM
TGI (SK-MEL-5 melanoma): 25.3 µM
GI50 (CCRF-CEM leukemia): 3.48 µM
TGI (CCRF-CEM leukemia): 71.5 µM
GI50 (NCI-H23 lung): 16.9 µM
TGI (NCI-H23 lung): 35.7 µM
GI50 (MOLT-4 leukemia): 3.92 µM
TGI (MOLT-4 leukemia): > 100 µM
GI50 (HCT-116 colon): 15.4 µM
TGI (HCT-116 colon): 31.5 µM
GI50 (IGROV1 ovarian): 13.5 µM
TGI (IGROV1 ovarian): 38.1 µM
GI50 (MDA-MB-231 breast): 4.27 µM
TGI (MDA-MB-231 breast): 10.6 µM
GI50 (PC-3 prostate): 10.9 µM
TGI (PC-3 prostate): 29.1 µM
GI50 (SF-295 CNS): 15.3 µM
TGI (SF-295 CNS): 29.8 µM
GI50 (LOX IMVI melanoma): 6.53 µM
TGI (LOX IMVI melanoma): > 37.6 µM
GI50 (HS 578T breast): 23.4 µM
TGI (HS 578T breast): > 68.6 µM
GI50 (SK-MEL-2 melanoma): 13.9 µM
TGI (SK-MEL-2 melanoma): 49.5 µM
GI50 (NCI/ADR-RES ovarian): 17.7 µM
TGI (NCI/ADR-RES ovarian): 58.2 µM
GI50 (HOP-92 NSCLC): 13.4 µM
TGI (HOP-92 NSCLC): 29.8 µM
GI50 (MCF7 breast): 20.9 µM
TGI (MCF7 breast): > 63.2 µM
GI50 (BT-549 breast): 14.8 µM
TGI (BT-549 breast): 32.5 µM
GI50 (MALME-3M melanoma): 3.98 µM
TGI (MALME-3M melanoma): 14.4 µM
GI50 (COLO 205 colon): 7.15 µM
TGI (COLO 205 colon): > 48.8 µM
GI50 (OVCAR-8 ovarian): 10.5 µM
TGI (OVCAR-8 ovarian): 32.1 µM
GI50 (HCC-2998 colon): 17 µM
TGI (HCC-2998 colon): 39.8 µM
GI50 (U251 CNS): 17.3 µM
TGI (U251 CNS): 38.1 µM
GI50 (UACC-62 melanoma): 11.7 µM
TGI (UACC-62 melanoma): 24.9 µM
GI50 (OVCAR-5 ovarian): 20.6 µM
TGI (OVCAR-5 ovarian): 38.9 µM
GI50 (DU-145 prostate): 41 µM
TGI (DU-145 prostate): > 93.6 µM
GI50 (OVCAR-4 ovarian): 7.36 µM
TGI (OVCAR-4 ovarian): 26.5 µM
GI50 (EKVX NSCLC): 13 µM
TGI (EKVX NSCLC): 44.6 µM
GI50 (RPMI-8226 leukemia): 3.14 µM
TGI (RPMI-8226 leukemia): 13.5 µM
GI50 (HOP-62 NSCLC): 18.8 µM
TGI (HOP-62 NSCLC): 34.4 µM
GI50 (NCI-H522 lung): 8.16 µM
TGI (NCI-H522 lung): 24.6 µM
GI50 (UACC-257 melanoma): 14.7 µM
TGI (UACC-257 melanoma): 29.2 µM
GI50 (NCI-H460 lung): 27.1 µM
TGI (NCI-H460 lung): > 95.3 µM
GI50 (HT29 colon): 7.26 µM
TGI (HT29 colon): 46.2 µM
GI50 (ACHN renal): 14.4 µM
TGI (ACHN renal): 32 µM
GI50 (SN12C renal): 14 µM
TGI (SN12C renal): 27.9 µM
GI50 (SR leukemia): 2.94 µM
TGI (SR leukemia): 25.9 µM
GI50 (SK-OV-3 ovarian): 22.8 µM
TGI (SK-OV-3 ovarian): 45.6 µM
GI50 (RXF 393 renal): 12.7 µM
TGI (RXF 393 renal): > 93.5 µM
GI50 (HCT-15 colon): 28 µM
TGI (HCT-15 colon): > 94.1 µM
GI50 (NCI-H226 lung): 15.4 µM
TGI (NCI-H226 lung): 30.8 µM
GI50 (HL-60(TB) leukemia): 3.17 µM
TGI (HL-60(TB) leukemia): > 89.9 µM
GI50 (CAKI-1 renal): 12.6 µM
TGI (CAKI-1 renal): 26.2 µM
GI50 (SNB-19 CNS): 20.1 µM
TGI (SNB-19 CNS): > 61 µM
GI50 (T-47D breast): 4.16 µM
TGI (T-47D breast): > 27.5 µM
GI50 (KM12 colon): 12.8 µM
TGI (KM12 colon): 28.4 µM
GI50 (SNB-75 CNS): 14.1 µM
TGI (SNB-75 CNS): 37.4 µM
GI50 (SF-539 CNS): 18.9 µM
TGI (SF-539 CNS): 41.1 µM
GI50 (K-562 leukemia): 10.9 µM
TGI (K-562 leukemia): > 100 µM
GI50 (786-0 renal): 15.7 µM
TGI (786-0 renal): 33.5 µM
GI50 (A549 NSCLC): 23.6 µM
TGI (A549 NSCLC): > 70.6 µM
GI50 (TK-10 renal): 16.8 µM
TGI (TK-10 renal): 32.8 µM
GI50 (MDA-MB-435): 2.07 µM
TGI (MDA-MB-435): 4.05 µM
GI50 (M14 melanoma): 8.56 µM
TGI (M14 melanoma): 15.6 µM
GI50 (UO-31 renal): 15 µM
TGI (UO-31 renal): 40.7 µM
GI50 (SW-620 colon): 7.77 µM
TGI (SW-620 colon): > 58.9 µM
